Target: JAK1 (Homo sapiens (Human), UniProt P23458)
Test: Cellular JAK1 assay: IL-6-mediated STAT3 phosphorylation in TF-1 cells
Format: cell-based
Details: IL-6 stimulation, STAT3 phosphorylation at Tyr705 (AlphaLISA), read-out: Inhibitory Activity Against JAK1 IC50
Description: The cellular potency of a compound on JAK1 or JAK2 inhibition is determined by measuring the cytokine-mediated phosphorylation of STAT proteins in TF-1 cells.
Human cytokines of IL-6 (R&D Systems, Cat. No. 206-IL-010/CF) and GM-CSF (R&D Systems, Cat. No. 215-GM-010/CF) are reconstituted at 10 μg/mL in D-PBS containing 0.1% BSA (Sigma, Cat. No. A8577) and human EPO (R&D Systems, Cat. No. 287-TC-500) at 500 U/mL in D-PBS containing 0.1% BSA. TF-1 cells (ATCC, CRL-2003) were grown in RPMI1640 (ATCC, Cat. No. 30-2001) supplemented with 2 ng/mL of recombinant human GM-CSF, 10% FBS (Gibco, Cat. No. 10437-028), and 100 U/mL penicillin-streptomycin (Gibco, Cat. No. 15140-122). The cells were maintained and propagated between 1×10^5 cells/mL to 7.5×10^5 cells/mL. Aliquots of the cells from early passages were preserved for liquid nitrogen storage. Frozen vials of the cells were thawed at 37° C. water bath. The cells were spun to remove freezing medium. The newly revived frozen cells were adapted in culture for 5-7 days before used for compound testing. The cells used in for compound testing were less than 20 subculture passages or 3 months in culture.
To test compounds, the TF-1 cells were harvested at a density of 3 to 7×10^5 cells/mL by centrifugation. After removing the culture medium, the resulting cell pellet was suspended and washed once by centrifugation with HBSS buffer (Gibco, Cat. No. 14025-092) containing 0.1% BSA. The cell pellet was resuspended in HBSS buffer at 7.5×10^6 cells/mL. Four micro-liters of the cells (3×10^4 cells in total) were added to each well of a white 384-well plate (Packard, Cat. No. 6005214).
The compounds were first diluted in dimethylsulfoxide (DMSO) (Sigma, Cat. No. D2650) to generate 9 3-fold diluted dosing concentrations in a 96-well polypropylene plate (Corning, Cat. No. 3365), followed by addition of HBSS buffer for another 125-fold dilution. To the cells, 2 μL of the diluted compounds were added and mixed by tapping the plate several times. The cells were incubated for 2 hrs of treatment. DMSO was used as a control and similarly diluted along and added to the cells.
To assay JAK1 inhibition, 2 μL of IL-6 diluted at 400 ng/mL (4×) in HBSS containing 0.1% BSA was added to the treated cells. The cells were then incubated for 30 min of cytokine treatment and lysed at the end by addition of 2 μL of 5×AlphaLISA SureFire Ultra lysis buffer from Perkin Elmer. The plate was agitated on a plate shaker for 10 min at room temperature. The cellular JAK1 activity was determined by measuring STAT3 phosphorylation at Tyr705 in lysates using the AlphaLISA SureFire Ultra kit (Perkin Elmer, Cat. No. ALSU-PST3-A500). A volume of 5 μL of acceptor mix and donor mix was added sequentially to lysates following the product protocol. The assay signals were recorded on EnVision plate reader (Perkin Elmer) with AlphaScreen optics setting.
The results are summarized in Table 3, where A represents a value no greater than 500 nM, B represents a value greater than 500 nM but no greater than 1 μM, C represents a value greater than 1 μM but no greater than 5 μM, and D represents a value greater than 5 μM.

Sequence of JAK1 (P23458 whole entry): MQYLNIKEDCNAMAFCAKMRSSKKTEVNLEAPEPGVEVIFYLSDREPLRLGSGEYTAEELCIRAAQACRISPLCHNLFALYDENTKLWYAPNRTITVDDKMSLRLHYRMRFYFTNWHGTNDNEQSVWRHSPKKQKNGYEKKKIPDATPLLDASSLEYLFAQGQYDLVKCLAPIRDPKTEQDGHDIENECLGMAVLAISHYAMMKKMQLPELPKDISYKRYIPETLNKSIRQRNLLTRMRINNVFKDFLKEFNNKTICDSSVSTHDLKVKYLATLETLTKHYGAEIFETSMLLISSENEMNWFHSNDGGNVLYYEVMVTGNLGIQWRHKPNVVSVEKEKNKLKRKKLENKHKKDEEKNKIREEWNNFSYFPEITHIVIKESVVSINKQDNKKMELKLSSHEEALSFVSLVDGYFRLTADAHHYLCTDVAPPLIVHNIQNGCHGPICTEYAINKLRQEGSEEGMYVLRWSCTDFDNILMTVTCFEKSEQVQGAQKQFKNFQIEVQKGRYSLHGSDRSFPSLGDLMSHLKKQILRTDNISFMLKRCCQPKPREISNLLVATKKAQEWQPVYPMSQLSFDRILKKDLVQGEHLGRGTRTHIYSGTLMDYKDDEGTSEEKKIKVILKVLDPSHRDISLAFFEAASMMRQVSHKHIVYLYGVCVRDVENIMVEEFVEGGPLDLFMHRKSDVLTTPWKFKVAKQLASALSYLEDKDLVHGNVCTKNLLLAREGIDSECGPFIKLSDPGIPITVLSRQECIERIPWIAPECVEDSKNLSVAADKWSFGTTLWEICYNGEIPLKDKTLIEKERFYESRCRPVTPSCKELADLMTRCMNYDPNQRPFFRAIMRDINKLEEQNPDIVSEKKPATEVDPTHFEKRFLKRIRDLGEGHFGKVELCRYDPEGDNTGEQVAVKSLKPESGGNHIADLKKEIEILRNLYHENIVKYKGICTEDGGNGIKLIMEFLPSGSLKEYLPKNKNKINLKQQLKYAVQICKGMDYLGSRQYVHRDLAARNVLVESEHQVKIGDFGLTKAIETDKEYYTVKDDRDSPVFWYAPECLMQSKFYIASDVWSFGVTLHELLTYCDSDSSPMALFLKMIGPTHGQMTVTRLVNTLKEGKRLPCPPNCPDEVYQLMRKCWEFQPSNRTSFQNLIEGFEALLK

## O=C(Nc1cn2c(-c3ccc(CN4CCS(=O)(=O)CC4)cc3F)cccc2n1)C1CC1 [Compound 14]
  IC50: ≤ 0.5 µM

From patent US10730875B2, “Substituted imidazo[1,2-A]pyridin-2-ylamine compounds, and pharmaceutical compositions and methods of use thereof” (JN Therapeutics, priority 2015, dated 2020)
